Source: ChEMBL document CHEMBL1201862, “PubChem BioAssay data set” (2004)
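Test compounds were applied to cells in 96-well plates for 48 hours at 5 doses. GI50 is the concentration that inhibits growth by half.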 Active and inactive are the calls of the source. No stated cut-off is given here; in the data, active = GI50 up to about 1.1 µM and inactive = higher.

Columns and labels:
Experiment in all cases: NCI-60 cell line screen, 48 h
DMS-114 = system: DMS-114
KM12 = system: KM12
U-251 = system: U-251
KM-20L2 = system: KM-20L2
NCI-H226 = system: NCI-H226
COLO 205 = system: COLO 205
UO-31 = system: UO-31
IGROV-1 = system: IGROV-1
HCT-15 = system: HCT-15
MOLT-4 = system: MOLT-4
RXF 393 = system: RXF 393
HT-29 = system: HT-29
ACHN = system: ACHN
CAKI-1 = system: CAKI-1
DMS-273 = system: DMS-273
EKVX = system: EKVX
SN12C = system: SN12C
SF-539 = system: SF-539
NCI-H23 = system: NCI-H23
HCC 2998 = system: HCC 2998
OVCAR-5 = system: OVCAR-5
HOP-18 = system: HOP-18
SNB-75 = system: SNB-75
786-0 = system: 786-0
OVCAR-4 = system: OVCAR-4
UACC-257 = system: UACC-257
K562 = system: K562
LXFL 529 = system: LXFL 529
NCI-H522 = system: NCI-H522
SR = system: SR
SK-MEL-28 = system: SK-MEL-28
SNB-19 = system: SNB-19
XF498 = system: XF498
Malme-3M = system: Malme-3M
SK-MEL-5 = system: SK-MEL-5
RPMI-8226 = system: RPMI-8226
OVCAR-3 = system: OVCAR-3
HCT-116 = system: HCT-116
SW-620 = system: SW-620
SK-MEL-2 = system: SK-MEL-2
M14 = system: M14
DLD-1 = system: DLD-1
SF-295 = system: SF-295
A549 = system: A549
TK-10 = system: TK-10
NCI-H460 = system: NCI-H460
SK-OV-3 = system: SK-OV-3
OVCAR-8 = system: OVCAR-8
HOP-62 = system: HOP-62
SNB-78 = system: SNB-78
MCF7 = system: MCF7
SF-268 = system: SF-268
UACC-62 = system: UACC-62
NCI/ADR-RES = system: NCI/ADR-RES
HL-60 = system: HL-60
CCRF-CEM = system: CCRF-CEM
LOX IMVI = system: LOX IMVI
M19-MEL = system: M19-MEL
A498 = system: A498
HOP-92 = system: HOP-92

Structure (SMILES): CC(=O)OC1CCn2nnc(CO[Si](C)(C)C(C)(C)C)c21 (stereo not given)
- GI50 (DMS-114): > 100 µM (inactive)
- GI50 (KM12): > 100 µM (inactive)
- GI50 (U-251): > 100 µM (inactive)
- GI50 (KM-20L2): > 100 µM (inactive)
- GI50 (NCI-H226): > 100 µM (inactive)
- GI50 (COLO 205): > 100 µM (inactive)
- GI50 (UO-31): > 100 µM (inactive)
- GI50 (IGROV-1): > 100 µM (inactive)
- GI50 (HCT-15): > 100 µM
- GI50 (MOLT-4): > 100 µM (inactive)
- GI50 (RXF 393): > 100 µM (inactive)
- GI50 (HT-29): > 100 µM (inactive)
- GI50 (ACHN): > 100 µM (inactive)
- GI50 (CAKI-1): > 100 µM (inactive)
- GI50 (DMS-273): > 100 µM (inactive)
- GI50 (EKVX): > 100 µM (inactive)
- GI50 (SN12C): > 100 µM (inactive)
- GI50 (SF-539): > 100 µM (inactive)
- GI50 (NCI-H23): > 100 µM (inactive)
- GI50 (HCC 2998): > 100 µM (inactive)
- GI50 (OVCAR-5): > 100 µM (inactive)
- GI50 (HOP-18): > 100 µM (inactive)
- GI50 (SNB-75): 21 µM (inactive)
- GI50 (786-0): > 100 µM (inactive)
- GI50 (OVCAR-4): > 100 µM (inactive)
- GI50 (UACC-257): > 100 µM (inactive)
- GI50 (K562): > 100 µM (inactive)
- GI50 (LXFL 529): > 100 µM (inactive)
- GI50 (NCI-H522): > 100 µM (inactive)
- GI50 (SR): > 100 µM (inactive)
- GI50 (SK-MEL-28): > 100 µM (inactive)
- GI50 (SNB-19): > 100 µM (inactive)
- GI50 (XF498): > 100 µM (inactive)
- GI50 (Malme-3M): > 100 µM (inactive)
- GI50 (SK-MEL-5): > 100 µM (inactive)
- GI50 (RPMI-8226): > 100 µM (inactive)
- GI50 (OVCAR-3): > 100 µM (inactive)
- GI50 (HCT-116): > 100 µM (inactive)
- GI50 (SW-620): > 100 µM (inactive)
- GI50 (SK-MEL-2): > 100 µM (inactive)
- GI50 (M14): > 100 µM (inactive)
- GI50 (DLD-1): > 100 µM (inactive)
- GI50 (SF-295): > 100 µM (inactive)
- GI50 (A549): > 100 µM (inactive)
- GI50 (TK-10): > 100 µM (inactive)
- GI50 (NCI-H460): > 100 µM (inactive)
- GI50 (SK-OV-3): > 100 µM (inactive)
- GI50 (OVCAR-8): > 100 µM (inactive)

Structure (SMILES): COc1cc(C2c3cc4c(cc3[C@@H](Nc3ccc(Oc5ccccc5)cc3)C3COC(=O)[C@H]23)OCO4)cc(OC)c1O (stereo not given in full)
- GI50 (HOP-62): 0.851 µM (active)
- GI50 (DMS-114): 0.597 µM (active)
- GI50 (KM12): 4.57 µM (inactive)
- GI50 (U-251): 2.36 µM (inactive)
- GI50 (KM-20L2): 1.17 µM (inactive)
- GI50 (NCI-H226): 1.56 µM (inactive)
- GI50 (COLO 205): 1.5 µM (inactive)
- GI50 (UO-31): 2.59 µM (inactive)
- GI50 (SNB-78): > 61 µM (inactive)
- GI50 (IGROV-1): 4.38 µM (inactive)
- GI50 (HCT-15): 1.3 µM
- GI50 (MOLT-4): 0.329 µM (active)
- GI50 (MCF7): 0.4 µM (active)
- GI50 (SF-268): 2.52 µM (inactive)
- GI50 (RXF 393): 1.29 µM (inactive)
- GI50 (UACC-62): 0.869 µM (active)
- GI50 (HT-29): 1.74 µM (inactive)
- GI50 (NCI/ADR-RES): 9.02 µM (inactive)
- GI50 (CAKI-1): 1.35 µM (inactive)
- GI50 (EKVX): > 39.7 µM (inactive)
- GI50 (SN12C): 2.7 µM (inactive)
- GI50 (SF-539): 0.536 µM (active)
- GI50 (NCI-H23): 1.12 µM (inactive)
- GI50 (HCC 2998): 1.64 µM (inactive)
- GI50 (OVCAR-5): > 61 µM (inactive)
- GI50 (HOP-18): 4.47 µM (inactive)
- GI50 (OVCAR-4): 7.11 µM (inactive)
- GI50 (UACC-257): 1.22 µM (inactive)
- GI50 (K562): 1.14 µM (inactive)
- GI50 (NCI-H522): 2.25 µM (inactive)
- GI50 (SK-MEL-28): > 42.3 µM (inactive)
- GI50 (SNB-19): 3.27 µM (inactive)
- GI50 (XF498): 5.26 µM (inactive)
- GI50 (HL-60): 0.362 µM (active)
- GI50 (Malme-3M): 3.7 µM (inactive)
- GI50 (CCRF-CEM): 0.431 µM (active)
- GI50 (LOX IMVI): 2.43 µM (inactive)
- GI50 (SK-MEL-5): 1.58 µM (inactive)
- GI50 (RPMI-8226): 1.08 µM (active)
- GI50 (OVCAR-3): > 62.2 µM (inactive)
- GI50 (HCT-116): 0.979 µM (active)
- GI50 (SW-620): 2.07 µM (inactive)
- GI50 (SK-MEL-2): > 29.9 µM (inactive)
- GI50 (DLD-1): 3.95 µM (inactive)
- GI50 (SF-295): 1.27 µM (inactive)
- GI50 (M19-MEL): 4.36 µM (inactive)
- GI50 (A549): 0.916 µM (active)
- GI50 (A498): 1.24 µM (inactive)
- GI50 (NCI-H460): 0.0867 µM (active)
- GI50 (SK-OV-3): 4.93 µM (inactive)
- GI50 (OVCAR-8): 4.5 µM (inactive)

Structure (SMILES): OC(CCl)CN1CC[N+]2(CC1)CC[N+]1(CCN(CC(O)CCl)CC1)CC2 (stereo not given) [PROSPIDIUM CHLORIDE]
- GI50 (DMS-114): 41.6 µM (inactive)
- GI50 (KM12): > 50 µM (inactive)
- GI50 (U-251): > 50 µM (inactive)
- GI50 (KM-20L2): > 50 µM (inactive)
- GI50 (NCI-H226): > 50 µM (inactive)
- GI50 (COLO 205): > 50 µM (inactive)
- GI50 (UO-31): > 50 µM (inactive)
- GI50 (IGROV-1): > 50 µM (inactive)
- GI50 (HCT-15): > 50 µM
- GI50 (MOLT-4): > 50 µM (inactive)
- GI50 (SF-268): > 50 µM (inactive)
- GI50 (RXF 393): > 50 µM (inactive)
- GI50 (HT-29): > 50 µM (inactive)
- GI50 (ACHN): > 50 µM (inactive)
- GI50 (CAKI-1): > 50 µM (inactive)
- GI50 (DMS-273): > 50 µM (inactive)
- GI50 (EKVX): > 50 µM (inactive)
- GI50 (SN12C): > 50 µM (inactive)
- GI50 (SF-539): > 50 µM (inactive)
- GI50 (NCI-H23): > 50 µM (inactive)
- GI50 (HCC 2998): > 50 µM (inactive)
- GI50 (HOP-18): > 50 µM (inactive)
- GI50 (SNB-75): > 50 µM (inactive)
- GI50 (786-0): > 50 µM (inactive)
- GI50 (OVCAR-4): > 50 µM (inactive)
- GI50 (K562): > 50 µM (inactive)
- GI50 (LXFL 529): > 50 µM (inactive)
- GI50 (NCI-H522): > 50 µM (inactive)
- GI50 (SR): > 50 µM (inactive)
- GI50 (SK-MEL-28): > 50 µM (inactive)
- GI50 (SNB-19): > 50 µM (inactive)
- GI50 (XF498): > 50 µM (inactive)
- GI50 (HL-60): > 50 µM (inactive)
- GI50 (Malme-3M): > 50 µM (inactive)
- GI50 (CCRF-CEM): > 50 µM (inactive)
- GI50 (HOP-92): > 50 µM (inactive)
- GI50 (SK-MEL-5): > 50 µM (inactive)
- GI50 (RPMI-8226): > 50 µM (inactive)
- GI50 (OVCAR-3): > 50 µM (inactive)
- GI50 (HCT-116): > 50 µM (inactive)
- GI50 (SW-620): > 50 µM (inactive)
- GI50 (SK-MEL-2): > 50 µM (inactive)
- GI50 (M14): > 50 µM (inactive)
- GI50 (SF-295): > 50 µM (inactive)
- GI50 (M19-MEL): > 50 µM (inactive)
- GI50 (A549): > 50 µM (inactive)
- GI50 (A498): > 50 µM (inactive)
- GI50 (TK-10): > 50 µM (inactive)
- GI50 (NCI-H460): > 50 µM (inactive)
- GI50 (SK-OV-3): > 50 µM (inactive)
- GI50 (OVCAR-8): > 50 µM (inactive)
